# In paper PMC10835127, “Viruses traverse the human proteome through peptide interfaces that can be biomimetically leveraged for drug discovery” (Proceedings of the National Academy of Sciences of the …, 2024):
# How the values were obtained:
# [1] = Kinetic solubility; type: physicochemical; conditions: PBS pH 7.4 buffer, pH 7.4, aqueous buffer, kinetic from dmso stock
# Protocol: 10 mM DMSO Stock solutions of tested compounds were distributed into filtration plate (Multiscreen Durapore 0.45µm) containing PBS pH 7.4 buffer to a final maximum concentration of 130 μM (1.3 % DMSO/buffer). Solutions or suspensions were shaken for 30 min at room temperature. The samples were filtered under vacuum into a collection plate and diluted 50 % with ACN for UV analysis. Quantification was performed against a Reference plate containing the same tested compounds fully solubilized in ACN/PBS buffer 1:1. Reference and Sample plates were analyzed by UPLC/UV-MS using a generic UPLC method. […]
# [2] = PK parameters in mice; type: in vivo, male Swiss (CD-1) mice; conditions: mouse
# Protocol: PK parameters and tissue distribution in mice
# The pharmacokinetic profiles of the tested compounds were evaluated in male Swiss (CD-1) mice around 5-6 weeks old (3 animals per sampling time). […]
# 0.2 % Tween 80 in water. Blood samples were collected (0.25 mL) from the sinus retro-orbital […]
# 24 hr for p.o. route. The blood samples were immediately centrifuged at 2500 rpm at +4 °C, and the plasma was stored at −80 °C. 50 μL of plasma sample was taken and 150 μL of acetonitrile was added. After protein precipitation, analysis of the molecule was performed using LC-MS/MS to determine plasma compound concentration. For liver and lung collection, 3 animals per group were involved and sampled after 2 hr and 24 hr upon 20 mg/kg p.o. administration. Animals were perfused with around 10 mL of saline solution directly into the heart to extract the maximal blood sample from the liver and the lung. Animals were then sacrificed by cervical dislocation and liver
# [3] = biological target: T1, NAF-1 (Homo sapiens, UniProt Q8N5K1); experiment: In vitro NEET [2Fe-2S] cluster release, NAF-1; type: biochemical; conditions: recombinant NAF-1, 37 °C, absorbance 460 nm
# T1 construct: MitoNEET ([60]) and NAF-1 ([61]) cytosolic domains and MiNT ([62]) were purified from E. coli as previously published; made in house; host or cells: E. coli
# T1 sequence (Q8N5K1 61-135 limits assumed): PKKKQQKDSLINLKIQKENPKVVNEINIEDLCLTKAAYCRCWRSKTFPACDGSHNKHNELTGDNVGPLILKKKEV
# Protocol: MitoNEET ([60]) and NAF-1 ([61]) cytosolic domains and MiNT ([62]) were purified from E. coli as previously published. Experiments were performed in 96-well plates at 37 °C with […] of Fe-S cluster in a buffer composed of 50 mM Tris-HCl pH 7 and 100 mM NaCl. dEF3122 was dissolved in dimethyl sulfoxide (DMSO) at 10 mM. CPEP31 was dissolved in PBS at 10 mM. After 20 min of incubation of the protein with the molecule, NEET cluster release was followed by measuring the absorbance at 460 and 800 nm over time using a plate reader (SpectraMax ID3). The absorbance at 460 nm was corrected for the variation of the baseline (absorbance at 800 nm) over time and normalized at 1 at the beginning of the kinetics.
# [4] = tested on: diet-induced obese model of NASH; experiment: NASH mouse model (AMLN diet-induced obese); type: in vivo, C57BL/6JRj mice; conditions: oral, 8 wk
# Protocol: Fig. 6. Effect of the lead compound in a diet-induced obese model of NASH. Mice fed with a high fat, high fructose, and cholesterol supplemented diet for 38 wk were then treated in the last 8 wk with vehicle, dEF3122, or OCA (obeticholic acid) at indicated concentrations (n = 12 animals per group). (A and B) Histopathological mean score changes between the beginning and end of the treatment for liver portal inflammation (A) and liver portal fibrosis (B) are shown with representative stained liver sections of hematoxylin and eosin (H&E) and picrosirius red stains, respectively. (C–E) (C) Areas of kidney fibrosis at the end of the treatment are shown as % of the total area of the selected fields with representative sections of the kidney stained with picrosirius red. (D) % CD3 and (E) % F4/80 positive areas in kidneys with representative sections of CD3 and F4/80 immunostainings. *P < 0.05, **P < 0.01, and ***P < 0.001 from the T test with a preliminary nonsignificant Shapiro–Wilk test or from Wilcoxon signed–rank test otherwise.
# Five-week-old male C57BL/6JRj mice were fed either chow diet or AMLN diet (40% total fat kcal of which 18.5% were trans-fat kcal, 20% fructose, and 2% cholesterol). This diet was maintained for 30 wk prior to study initiation. Three weeks prior to study initiation, liver biopsies were taken, and animals with steatosis grade <2 and fibrosis stage <1 were excluded from the study. Prior to the first administration of the test compound, stratified randomization of mice into treatment groups was performed according to collagen 1a1 (IHC) morphometry from the week 3 biopsies. Each treatment group consisted of 12 mice. For a total of 8 wk, compound dEF3122 was administered orally, twice daily at a concentration of 7 mg/kg or 20 mg/kg. OCA was administered orally, once daily at a concentration of 7 mg/kg. Animals were killed at the end of the treatment, and livers and kidneys were collected. […]
# NASH histopathology and immunochemistry
# Livers were fixed in 10 % neutral buffered formalin and paraffin-embedded; and sections were stained with H&E and picrosirius red to analyze their morphology. Histopathological analysis was performed by a pathologist blinded to the study. Fibrosis was evaluated by quantification of the picrosirius red positive areas. Inflammation was graded by counting the H&E positive inflammatory foci per field.
# Kidneys were fixed in 4 % PFA and paraffin embedded. 4-μm sections were stained with picrosirius red. Images were acquired using a digital slide scanner (Nanozoomer S210 Digital Slide Scanner, Hamamatsu). Renal lesions were blindly examined by a renal pathologist. The extent of interstitial fibrosis was quantified using Image J software (NIH) on Sirius red scanned colored sections. In short, at least 20 random selected fields (original magnification, ×200) across the kidney cortex were analyzed per each kidney section, and the results were expressed as percentages of the total area of the selected fields.
# For immunohistochemistry, 4-µm sections of paraffin-embedded kidneys were submitted for appropriate antigen retrieval by high pressure heating in a solution of Tris EDTA Tween or in a citrate solution. Then, sections were then incubated overnight at 4°C with the following antibodies: rabbit monoclonal anti-CD3 (Abcam, 1:100) and rat monoclonal anti- F4/80 (Biorad, 1:100). After washing, sections were incubated with appropriate amplification secondary antibody: biotin-coupled anti-rabbit (GE Healthcare) for CD3 and biotin-coupled anti-rat (Vector Laboratories) for F4/80, and then incubated with streptavidin coupled HRP (Southern). At the end, DAB (DAKO) staining was used to detect HRP. For quantification of CD3+ and F4/80+ renal cells, the degrees of cellular infiltrate were automatically quantified using ImageJ software (NIH) and expressed as a percentage of the surface area of the positive staining per field, in at least 10 random fields perp
# [5] = dEF3122 twice daily 7 or 20 mg/kg, OCA once daily 7 mg/kg, vs vehicle
structure (smiles),measurement,setting,value
O=C(Nc1scc(C2CCc3ccccc3C2)c1C(=O)O)c1ccccc1 (stereo not shown) [dEF3122],solubility kinetic at 30 min,[1],< 5 µM
same,Cmax,"[2]; male, Swiss (CD-1), plasma, po 2 mg/kg (dose for AUC)",1.6 µg/mL
same,bioavailability,"[2]; male, Swiss (CD-1), plasma, po 2 mg/kg, iv 0.25 mg/kg",36%
same,"plasma concentration reached after oral administration, molar equivalent",[2]; po 2 mg/kg,2.6 µM
same,interaction by [2Fe-2S] cluster release assay,[3],validated the interaction
same,kidney interstitial lymphocytes infiltration (CD3),[4]; twice daily 7 or 20 mg/kg,attenuated interstitial lymphocytes infiltration
same,kidney macrophages infiltration (F4/80),[4]; twice daily 7 or 20 mg/kg,but not macrophages infiltration
same,kidney fibrosis,"[4]; twice daily 7 or 20 mg/kg, picrosirius red",dramatically reduced fibrosis
same,liver portal fibrosis,[4]; [5],resolved portal inflammation and fibrosis
same,liver portal inflammation,[4]; [5],resolved portal inflammation
